Converted amounts (≈) assume the structure as drawn. The source made the active and inactive calls. The calls are words filed in the database; no cut-off is given here.
Legend:
Escherichia coli [1] = assay: Antibacterial activity against Escherichia coli at 100 ug/disk after 24 hr by paper disk diffusion method; assay type: functional; settings: read-out: IZ
Shigella flexneri [2] = assay: Antibacterial activity against Shigella flexneri at 100 ug/disc after 24 hr by paper disk diffusion method; assay type: functional; settings: read-out: IZ
Aspergillus clavatus [3] = assay: Antifungal activity against Aspergillus clavatus after 48 hr by agar streak dilution method; assay type: functional
Salmonella typhi [4] = assay: Antibacterial activity against Salmonella enterica subsp. enterica serovar Typhi at 100 ug/disk after 24 hr by paper disk diffusion method; assay type: functional; settings: read-out: IZ
Klebsiella pneumoniae [5] = assay: Antibacterial activity against Klebsiella pneumoniae at 100 ug/disk after 24 hr by paper disk diffusion method; assay type: functional; settings: read-out: IZ
Aspergillus fumigatus [6] = assay: Antifungal activity against Aspergillus fumigatus at 100 ug/disc after 48 hr by paper disk diffusion method; assay type: functional; settings: read-out: IZ
Proteus vulgaris [7] = assay: Antibacterial activity against Proteus vulgaris after 24 hr by agar streak dilution method; assay type: functional
Pseudomonas aeruginosa [8] = assay: Antibacterial activity against Pseudomonas aeruginosa at 100 ug/disk after 24 hr by paper disk diffusion method; assay type: functional; settings: read-out: IZ
Bacillus subtilis [9] = assay: Antibacterial activity against Bacillus subtilis at 100 ug/disk after 24 hr by paper disk diffusion method; assay type: functional; settings: read-out: IZ
Klebsiella pneumoniae [10] = assay: Antibacterial activity against Klebsiella pneumoniae after 24 hr by agar streak dilution method; assay type: functional
Escherichia coli [11] = assay: Antibacterial activity against Escherichia coli after 24 hr by agar streak dilution method; assay type: functional
Bacillus subtilis [12] = assay: Antibacterial activity against Bacillus subtilis after 24 hr by agar streak dilution method; assay type: functional
Aspergillus fumigatus [13] = assay: Antifungal activity against Aspergillus fumigatus after 48 hr by agar streak dilution method; assay type: functional
Aspergillus clavatus [14] = assay: Antifungal activity against Aspergillus clavatus at 100 ug/disc after 48 hr by paper disk diffusion method; assay type: functional; settings: read-out: IZ
Proteus vulgaris [15] = assay: Antibacterial activity against Proteus vulgaris at 100 ug/disk after 24 hr by paper disk diffusion method; assay type: functional; settings: read-out: IZ
Candida albicans [16] = assay: Antifungal activity against Candida albicans at 100 ug/ml after 48 hr by agar streak dilution method; assay type: functional, organism-based
Shigella flexneri [17] = assay: Antibacterial activity against Shigella flexneri after 24 hr by agar streak dilution method; assay type: functional
Pseudomonas aeruginosa [18] = assay: Antibacterial activity against Pseudomonas aeruginosa after 24 hr by agar streak dilution method; assay type: functional
Salmonella typhi [19] = assay: Antibacterial activity against Salmonella enterica subsp. enterica serovar Typhi after 24 hr by agar streak dilution method; assay type: functional
Staphylococcus aureus [20] = assay: Antibacterial activity against Staphylococcus aureus after 24 hr by agar streak dilution method; assay type: functional
Aspergillus niger [21] = assay: Antifungal activity against Aspergillus niger at 100 ug/disk after 48 hr by paper disk diffusion method; assay type: functional; settings: read-out: IZ
Staphylococcus aureus [22] = assay: Antibacterial activity against Staphylococcus aureus at 100 ug/disc after 24 hr by paper disk diffusion method; assay type: functional; settings: read-out: IZ
Aspergillus niger [23] = assay: Antifungal activity against Aspergillus niger after 48 hr by agar streak dilution method; assay type: functional
Candida albicans [24] = assay: Antifungal activity against Candida albicans after 48 hr by agar streak dilution method; assay type: functional
Shigella flexneri [25] = assay: Antibacterial activity against Shigella flexneri at 100 ug/ml after 24 hr by agar streak dilution method; assay type: functional, organism-based
Candida albicans [26] = assay: Antifungal activity against Candida albicans at 100 ug/disk after 48 hr by paper disk diffusion method; assay type: functional; settings: read-out: IZ
Klebsiella pneumoniae [27] = assay: Antibacterial activity against Klebsiella pneumoniae at 100 ug/ml after 24 hr by agar streak dilution method; assay type: functional, organism-based
Aspergillus fumigatus [28] = assay: Antifungal activity against Aspergillus fumigatus at 100 ug/ml after 48 hr by agar streak dilution method; assay type: functional, organism-based
Proteus vulgaris [29] = assay: Antibacterial activity against Proteus vulgaris at 100 ug/ml after 24 hr by agar streak dilution method; assay type: functional, organism-based
Escherichia coli [30] = assay: Antibacterial activity against Escherichia coli at 100 ug/ml after 24 hr by agar streak dilution method; assay type: functional, organism-based
Salmonella typhi [31] = assay: Antibacterial activity against Salmonella enterica subsp. enterica serovar Typhi at 100 ug/ml after 24 hr by agar streak dilution method; assay type: functional, organism-based
Pseudomonas aeruginosa [32] = assay: Antibacterial activity against Pseudomonas aeruginosa at 100 ug/ml after 24 hr by agar streak dilution method; assay type: functional, organism-based

Row | SMILES | zone of inhibition at 100 µg/disc (Escherichia coli [1]) [mm] | zone of inhibition at 100 µg/disc (Shigella flexneri [2]) [mm] | MIC (Aspergillus clavatus [3]) [µg/mL] | zone of inhibition at 100 µg/disc (Salmonella typhi [4]) [mm] | zone of inhibition at 100 µg/disc (Klebsiella pneumoniae [5]) [mm] | zone of inhibition at 100 µg/disc (Aspergillus fumigatus [6]) [mm] | zone of inhibition at 100 µg/disc (Pseudomonas aeruginosa [8]) [mm] | zone of inhibition at 100 µg/disc (Bacillus subtilis [9]) [mm] | MIC (Klebsiella pneumoniae [10]) [µg/mL] | MIC (Escherichia coli [11]) [µg/mL] | MIC (Bacillus subtilis [12]) [µg/mL] | zone of inhibition at 100 µg/disc (Aspergillus clavatus [14]) [mm] | Activity (Candida albicans [16]) | MIC (Shigella flexneri [17]) [µg/mL] | MIC (Pseudomonas aeruginosa [18]) [µg/mL] | MIC (Salmonella typhi [19]) [µg/mL] | MIC (Staphylococcus aureus [20]) [µg/mL] | zone of inhibition at 100 µg/disc (Aspergillus niger [21]) [mm] | zone of inhibition at 100 µg/disc (Staphylococcus aureus [22]) [mm] | MIC (Aspergillus niger [23]) [µg/mL] | other results
1 | Cc1cc(=O)oc2cc(Oc3nc(Nc4ccc(N5C(=O)CSC5c5ccccc5C(=O)O)cc4)nc(N(C)C)n3)ccc12 (stereo not given) | < 10 | 14 | 100 (≈ 164 µM) | < 10 | 12 | 10 | 14 | 14 | 100 (≈ 164 µM) | 100 (≈ 164 µM) | 100 (≈ 164 µM) | 13 | inactive | 100 (≈ 164 µM) | 100 (≈ 164 µM) | 100 (≈ 164 µM) | 100 (≈ 164 µM) | 12 | 16 | 100 (≈ 164 µM) | MIC (Proteus vulgaris [7]): 100 µg/mL (≈ 164 µM); MIC (Aspergillus fumigatus [13]): 100 µg/mL (≈ 164 µM); zone of inhibition at 100 µg/disc (Proteus vulgaris [15]): 11 mm
2 | Cc1cc(=O)oc2cc(Oc3nc(Nc4ccc(/N=C/c5ccccc5Br)cc4)nc(N(C)C)n3)ccc12 | 14 | – | 50 (≈ 87.5 µM) | < 10 | < 10 | 20 | 18 | 16 | 100 (≈ 175 µM) | 100 (≈ 175 µM) | 50 (≈ 87.5 µM) | 18 | – | – | 50 (≈ 87.5 µM) | 100 (≈ 175 µM) | 100 (≈ 175 µM) | 15 | 13 | 100 (≈ 175 µM) | MIC (Proteus vulgaris [7]): 100 µg/mL (≈ 175 µM); MIC (Candida albicans [24]): 50 µg/mL (≈ 87.5 µM); MIC (Aspergillus fumigatus [13]): 25 µg/mL (≈ 43.7 µM); Activity (Shigella flexneri [25]): inactive; zone of inhibition at 100 µg/disc (Proteus vulgaris [15]): 13 mm; zone of inhibition at 100 µg/disc (Candida albicans [26]): 19 mm
3 | COc1ccc(/C=N/c2ccc(Nc3nc(Oc4ccc5c(C)cc(=O)oc5c4)nc(N(C)C)n3)cc2)cc1OC | < 10 | 13 | 100 (≈ 181 µM) | 12 | – | – | 10 | 12 | – | 100 (≈ 181 µM) | 100 (≈ 181 µM) | < 10 | inactive | 100 (≈ 181 µM) | 100 (≈ 181 µM) | 100 (≈ 181 µM) | 50 (≈ 90.5 µM) | 12 | 16 | 100 (≈ 181 µM) | MIC (Proteus vulgaris [7]): 100 µg/mL (≈ 181 µM); Activity (Klebsiella pneumoniae [27]): inactive; Activity (Aspergillus fumigatus [28]): inactive; zone of inhibition at 100 µg/disc (Proteus vulgaris [15]): < 10 mm
4 | Cc1cc(=O)oc2cc(Oc3nc(Nc4ccc(/N=C/c5ccccc5C(=O)O)cc4)nc(N(C)C)n3)ccc12 | – | 11 | 100 (≈ 186 µM) | – | < 10 | < 10 | 11 | 11 | 100 (≈ 186 µM) | – | 100 (≈ 186 µM) | < 10 | inactive | 100 (≈ 186 µM) | 100 (≈ 186 µM) | – | 100 (≈ 186 µM) | 10 | 13 | 100 (≈ 186 µM) | Activity (Proteus vulgaris [29]): inactive; Activity (Escherichia coli [30]): inactive; Activity (Salmonella typhi [31]): inactive; MIC (Aspergillus fumigatus [13]): 100 µg/mL (≈ 186 µM)
5 | Cc1cc(=O)oc2cc(Oc3nc(Nc4ccc(N5C(=O)CSC5c5ccccc5)cc4)nc(N(C)C)n3)ccc12 (stereo not given) | 14 | 12 | 100 (≈ 176 µM) | 11 | < 10 | – | 15 | 13 | 100 (≈ 176 µM) | 100 (≈ 176 µM) | 100 (≈ 176 µM) | 13 | – | 100 (≈ 176 µM) | 100 (≈ 176 µM) | 100 (≈ 176 µM) | 100 (≈ 176 µM) | 11 | 12 | 100 (≈ 176 µM) | MIC (Proteus vulgaris [7]): 100 µg/mL (≈ 176 µM); Activity (Aspergillus fumigatus [28]): inactive; MIC (Candida albicans [24]): 100 µg/mL (≈ 176 µM); zone of inhibition at 100 µg/disc (Proteus vulgaris [15]): 10 mm; zone of inhibition at 100 µg/disc (Candida albicans [26]): 10 mm
6 | Cc1cc(=O)oc2cc(Oc3nc(Nc4ccc(/N=C/c5ccc([N+](=O)[O-])cc5)cc4)nc(N(C)C)n3)ccc12 | < 10 | < 10 | 100 (≈ 186 µM) | 13 | < 10 | < 10 | – | < 10 | 100 (≈ 186 µM) | 100 (≈ 186 µM) | 100 (≈ 186 µM) | 13 | inactive | 100 (≈ 186 µM) | – | 100 (≈ 186 µM) | 100 (≈ 186 µM) | < 10 | < 10 | 100 (≈ 186 µM) | Activity (Proteus vulgaris [29]): inactive; Activity (Pseudomonas aeruginosa [32]): inactive; MIC (Aspergillus fumigatus [13]): 100 µg/mL (≈ 186 µM)
7 | Cc1cc(=O)oc2cc(Oc3nc(Nc4ccc(/N=C/c5ccccc5)cc4)nc(N(C)C)n3)ccc12 | < 10 | – | 100 (≈ 203 µM) | < 10 | – | – | 12 | 10 | – | 100 (≈ 203 µM) | 100 (≈ 203 µM) | < 10 | inactive | – | 100 (≈ 203 µM) | 100 (≈ 203 µM) | 100 (≈ 203 µM) | < 10 | 11 | 100 (≈ 203 µM) | Activity (Proteus vulgaris [29]): inactive; Activity (Klebsiella pneumoniae [27]): inactive; Activity (Aspergillus fumigatus [28]): inactive; Activity (Shigella flexneri [25]): inactive

— ChEMBL document CHEMBL3046897, “Synthesis of 3-{4-[4-dimethylamino-6-(4-methyl-2-oxo-2H-chromen-7-yloxy)-[1,3,5]triazin-2-ylamino]-phenyl}-2-phenyl-5-(4-pyridin-2-yl-piperazin-1-ylmethyl)-thiazolidin-4-one and their biological evaluation” (2012)
